Reference: patent US5084455A, “Novel indole carboxamides” (Roussel Uclaf, priority 1985, dated 1992)
Like-named read-outs stand apart in the source and are kept apart here.

How the values were obtained:
[1] = system: arterial blood pressure; experiment: Hypotensive activity on anaesthetized normotensive rats; format: in vivo, Sprague-Dawley male rats; settings: 10 mg/kg, jugular vein injection
Protocol: Sprague-Dawley male rats (CR) were anaesthetized intraperitoneally with pentabarbital sodium (60 mg/kg) and a jugular vein was catheterized for the injection of the product, and a cartoid artery was catheterized for recording the arterial blood pressure. The test product was dissolved in 10% ethanol and then injected in a volume of 1 ml/kg.

[2] = system: disturbances of the cardiac rhythm; experiment: Anti-arrhythmic action in the rat (aconitine perfusion); format: in vivo, male rats
Protocol: Male rats weighing 300-350 g were anesthetized intra-peritoneally with 1.20 g/kg of urethane, then tracheotomized and submitted to artificial respiration (40-50 breaths of 3 ml/minute). Needles were implanted subcutaneously so as to record the electro-cardiogram of the rats on the DII derivation signal. The products under test were administered intravenously or orally.
Five minutes after the administration of the product intravenously or 1 hour after administration orally, the jugular vein of the rats was perfused with 10 μg/minute from 0.2 ml of a solution of aconitine, and the time of appearance of disturbances of the cardiac rhythm was noted, (10 μg of aconitine corresponding to a perfusion of 0.2 ml of solution). The results are expressed as a percentage of the extension of the time of appearance of the disturbances of the cardiac rhythm as compared with controls, and as a function of the dose of the product under test.

[3] = molecular target: T1, beta1-adrenergic receptors (Rattus norvegicus, UniProt P18090); experiment: Affinity for beta1-adrenergic receptors ([3H]dihydroalprenolol binding, brain cortex); settings: relative to propanolol, [3H]dihydroalprenolol 10^-9 M
T1 construct: 10 cortexes removed from the brains of male rats weighing 150 g on average were homogenized; from tissue; host or cells: rat brain cortex, crude membrane fraction
Protocol: (§1) The technique is modelled on that of Mohler et al [Science., Vol. 198, p. 849-851 (1977)]. 10 cortexes removed from the brains of male rats weighing 150 g on average were homogenized in 90 ml of 0.32M sucrose and after centrifugation of the homogenized mixture at 1,000 g for 20 minutes at 0° C., the supernatant was centrifuged at 30,000 g for 15 minutes at 0° to +4° C. The pellet was suspended in 120 ml of 50 mM Tris-HCl buffer pH 7.7, and centrifuged at 30,000 g for 15 minutes at 0° to +4° C. The new pellet was suspended in 480 ml of 50 mM Krebs Tris-HCl buffer pH 7.7. 2 ml of the suspension were then incubated for 10 minutes at 37° C. in the presence of [^3 H] dihydroalprenolol at a concentration of 10^-9 M, i) alone, ii) with increasing concentrations of the test product or iii) to determine the non-specific binding, with non-radioactive propanolol at a concentration of 10^-5 M. The incubated suspensions were filtered on Whatman GF/C, and the filters were washed three times with 5 ml of Krebs Tris-HCl buffer pH 7.7 at 0° C.
The radioactivity of the filters was measured by liquid scintillation. The affinity of the test product for beta1 -adrenergic receptors is given relative to propanolol as the reference product.
(§2) CD=concentration of propanolol inhibiting 50% of the specific binding of [^3 H]dihydroalprenolol.
CX=concentration of the test product inhibiting 50% of the specific binding of […].
The relative affinity is given by the relation [formula]

[4] = molecular target: T2, beta2-adrenergic receptors (Rattus norvegicus, UniProt P10608); experiment: Affinity for beta2-adrenergic receptors ([3H]dihydroalprenolol binding, cerebella); settings: relative to propanolol, [3H]dihydroalprenolol 10^-9 M
T2 construct: The cerebella removed from the brains of male rats weighing 150 g on average were homogenized; from tissue; host or cells: rat cerebellum, crude membrane fraction
Protocol: as §1, with “The technique was modelled on” for “The technique is modelled on”, “et al [Science, Vol. 198,” for “et al [Science., Vol. 198,”, “849-851 (1977)]. The cerebella removed from” for “849-851 (1977)]. 10 cortexes removed from”, “ml of suspension were” for “ml of the suspension were”, “of [^3 H]dihydroalprenolol at a” for “of [^3 H] dihydroalprenolol at a”, “binding, with non-radio active propranolol at a” for “binding, with non-radioactive propanolol at a”
The radioactivity of the filters was measured by liquid scintillation. The affinity of the test product for beta2 -adrenergic receptors was given relative to propanolol as the reference product.
as §2
CX=concentration of the test product inhibiting 50% of the specific binding of [^3 H]dihydroalprenolol.
The relative affinity is given by the relation ARL=100 CD/CX

[5] = system: Rat caudal arteries; experiment: Test of calcium-antagonistic activity in vitro (K+ depolarized caudal arteries); format: cell-based; settings: 100 mM K+, 37° C., read-out: IC50, inhibition of the contraction due to K+ ions
Protocol: Calcium chloride was added in a volume of 250 μl to obtain a series of increasing concentrations of Ca^2+ ions ranging from 0.1 to 3.0 mM. The contractions of the arteries were recorded and a control series were thus established. The operation was repeated with the series of CA^2+ ions every 15 minutes and the preparation was washed four times after each series. When a stable response was obtained, the operation with the series of CA^2+ ions was performed in the presence of different concentrations of the test product, until a stable response was obtained.
The contractions of the arteries depend on the entry of Ca^2+ ions into the cells of the smooth muscles, and were caused by the depolarization of the smooth muscle by the K^+ ions and by the action of the noradrenaline released at presynaptic level. By starting the operation again with arteries denervated by the action of 6-OH-dopamine, the specific action due to noradrenaline was eliminated.

[6] = system: mice; experiment: Study of the acute toxicity; format: in vivo; settings: oral
Protocol: The lethal doses LD50 of the different compounds tested were evaluated after administration orally to mice. The maximum dose not causing any mortality in 8 days was called the LD0 and the following results were obtained.

[7] = iv, read-out: Percentage extension of the time of appearance of disturbances of the cardiac rhythm
[8] = read-out: Percentage of prolongation in the time

T2 sequence (P10608 whole entry): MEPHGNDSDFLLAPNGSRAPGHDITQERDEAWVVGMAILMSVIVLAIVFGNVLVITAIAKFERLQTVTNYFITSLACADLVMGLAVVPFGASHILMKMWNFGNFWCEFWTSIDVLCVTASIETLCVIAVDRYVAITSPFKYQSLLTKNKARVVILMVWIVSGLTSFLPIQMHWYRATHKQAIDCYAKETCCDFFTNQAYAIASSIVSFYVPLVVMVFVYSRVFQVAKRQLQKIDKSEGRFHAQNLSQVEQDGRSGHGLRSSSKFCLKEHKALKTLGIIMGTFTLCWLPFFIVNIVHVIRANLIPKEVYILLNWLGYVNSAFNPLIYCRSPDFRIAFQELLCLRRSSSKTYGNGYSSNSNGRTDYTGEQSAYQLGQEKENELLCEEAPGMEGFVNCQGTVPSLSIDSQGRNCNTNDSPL
T1 sequence (P18090 whole entry): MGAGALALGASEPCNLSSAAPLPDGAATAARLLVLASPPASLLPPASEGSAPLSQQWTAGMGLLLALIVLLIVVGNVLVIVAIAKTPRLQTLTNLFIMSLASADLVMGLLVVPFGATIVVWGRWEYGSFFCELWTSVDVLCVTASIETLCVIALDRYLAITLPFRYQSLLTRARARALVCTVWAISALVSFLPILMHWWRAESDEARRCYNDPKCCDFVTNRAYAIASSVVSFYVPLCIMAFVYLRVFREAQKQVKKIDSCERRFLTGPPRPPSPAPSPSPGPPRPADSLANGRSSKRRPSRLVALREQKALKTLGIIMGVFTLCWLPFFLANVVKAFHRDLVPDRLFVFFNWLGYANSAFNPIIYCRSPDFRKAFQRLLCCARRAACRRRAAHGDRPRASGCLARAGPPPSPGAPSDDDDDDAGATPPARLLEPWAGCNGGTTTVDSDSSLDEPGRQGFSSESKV

| SMILES | variation of the arterial blood pressure, 5 mins after administration ([1]; 5 min) [percentage] | variation of the arterial blood pressure, 30 min. after administration ([1]; 30 min) [percentage] | change in vivo at 1 mg/kg [2, 7] [%] | change in vivo at 2.5 mg/kg [2, 7] [%] | change in vivo at 5 mg/kg [2, 7] [%] | ARL (relative affinity for beta1-adrenergic receptors) [3] [%] | ARL (relative affinity for beta2-adrenergic receptors, 100 CD/CX) [4] [%] | IC50 [5] [µM] | LD0 (maximum dose not causing any mortality in 8 days) [6] [mg/kg] | change in vivo at 2.5 mg/kg [2, 8] [%] | change in vivo at 5 mg/kg [2, 8] [%] | change in vivo at 10 mg/kg [2, 8] [%] |
| --- | --- | --- | --- | --- | --- | --- | --- | --- | --- | --- | --- | --- |
| CC(C)(C)NCC(O)COc1ccccc1C(=O)Nc1cccc2[nH]ccc12 (centres unmarked) [Example 17, 2-[3-[(1,1-dimethylethyl)amino]-2-hydroxypropoxy]-N-(1H-indol-4-yl) benzamide benzoate] | -55 | -13 | – | – | – | – | – | – | – | – | – | – |
| CCC(C)(C)NCC(O)COc1ccccc1C(=O)Nc1cccc2[nH]ccc12 (centres unmarked) [Example 28, 2-[3-[(1,1-dimethylpropyl)amino]-2-hydroxypropoxy]-N-(1H-indol-4-yl) benzamide] | – | – | 14 | 54 | 95 | 28 | 15 | 2.5 | > 400 | – | – | – |
| CCC(C)(C)NCC(O)COc1ccccc1C(=O)Nc1cccc2[nH]ccc12.O=C(O)c1ccccc1 (centres unmarked) [Example 48, 2-[3-[(1,1-Dimethylpropyl)amino]-2-hydroxypropoxy]-N-(1H-indol-4-yl)benzamide benzoate] | – | – | – | – | – | 20 | 27 | – | – | 53 | 79 | – |
| Cn1ccc2c(NC(=O)c3ccccc3OCC(O)CNC(C)(C)C)cccc21 (centres unmarked) [Example 34, 2-[3-[1,1-Dimethylethylamino]-2-hydroxypropoxy]-N-(1-methyl-1H-indol-4-yl) benzamide] | – | – | – | – | – | 44 | 81 | 8.8 | 80 | 12 | 43 | 125 |
